From ChEMBL document CHEMBL1909046, “DrugMatrix in vitro pharmacology data” come the findings set out here.

The structures appear in SMILES notation.

For one assay, the target named is T1, Cathepsin G (Homo sapiens, UniProt P08311).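 Further: inhibition of Cathepsin G enzyme activity, tested on an AMC-conjugated peptide substrate; in other assays of this panel Not Active means under 50% inhibition at 10 µM.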
T1 sequence (P08311 whole entry): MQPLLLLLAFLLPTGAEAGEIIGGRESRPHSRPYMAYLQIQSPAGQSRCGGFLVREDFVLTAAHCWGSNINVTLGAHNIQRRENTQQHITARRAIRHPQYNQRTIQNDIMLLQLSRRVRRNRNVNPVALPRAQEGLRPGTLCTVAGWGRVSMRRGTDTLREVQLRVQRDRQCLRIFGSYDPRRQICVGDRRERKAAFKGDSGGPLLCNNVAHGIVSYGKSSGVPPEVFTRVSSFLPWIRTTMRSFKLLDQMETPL
The assay is classed as tissue-based. Conditions: neutrophil.

Assay [1] deals with T2, Alpha-2C adrenergic receptor (Homo sapiens, UniProt P18825).
T2 sequence (P18825 whole entry): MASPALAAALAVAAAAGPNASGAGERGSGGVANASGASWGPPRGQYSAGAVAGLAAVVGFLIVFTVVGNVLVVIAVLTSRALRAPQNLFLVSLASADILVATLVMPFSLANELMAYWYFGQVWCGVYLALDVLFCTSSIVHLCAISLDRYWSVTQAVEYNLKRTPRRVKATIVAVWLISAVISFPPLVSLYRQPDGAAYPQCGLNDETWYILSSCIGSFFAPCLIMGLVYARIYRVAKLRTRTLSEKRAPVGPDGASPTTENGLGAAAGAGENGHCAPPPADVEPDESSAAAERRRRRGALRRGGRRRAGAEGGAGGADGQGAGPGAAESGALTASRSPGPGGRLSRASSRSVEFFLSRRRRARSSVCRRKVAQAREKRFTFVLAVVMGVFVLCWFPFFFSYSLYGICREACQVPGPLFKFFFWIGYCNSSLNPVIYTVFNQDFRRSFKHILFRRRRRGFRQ
The experiment in a line: DRUGMATRIX: Adrenergic Alpha-2C radioligand binding (ligand: [3H] MK-912). The assay is classed as cell membranes, Sf9, Membrane. Conditions: sf9.

The nature of assay [2]: DRUGMATRIX: Glutamate, NMDA, Agonism radioligand binding (ligand: [3H] CGP-39653). The assay is classed as cell membranes, Rattus norvegicus, Wistar, Cerebral cortex, Membrane. Conditions: Not Active = under 50% inhibition at 10 µM.
The target of assay [3] is 5-hydroxytryptamine receptor 1B (Rattus norvegicus, UniProt P28564). It is filed as cell membranes, Wistar, Cerebral cortex, Membrane. The note with it: for Ki: read-out: Ki. On all read-outs here: in other assays of this panel Not Active means under 50% inhibition at 10 µM.
The target in assay [4] is 5-hydroxytryptamine receptor 4 (Cavia porcellus, UniProt O70528). It is filed as cell membranes, Dunkin-Hartley, Striatum, Membrane. Further: in other assays of this panel Not Active means under 50% inhibition at 10 µM.
The target of a further assay is T3, Estrogen receptor (Homo sapiens, UniProt P03372). Further: in other assays of this panel Not Active means under 50% inhibition at 10 µM.
T3 sequence (P03372 whole entry): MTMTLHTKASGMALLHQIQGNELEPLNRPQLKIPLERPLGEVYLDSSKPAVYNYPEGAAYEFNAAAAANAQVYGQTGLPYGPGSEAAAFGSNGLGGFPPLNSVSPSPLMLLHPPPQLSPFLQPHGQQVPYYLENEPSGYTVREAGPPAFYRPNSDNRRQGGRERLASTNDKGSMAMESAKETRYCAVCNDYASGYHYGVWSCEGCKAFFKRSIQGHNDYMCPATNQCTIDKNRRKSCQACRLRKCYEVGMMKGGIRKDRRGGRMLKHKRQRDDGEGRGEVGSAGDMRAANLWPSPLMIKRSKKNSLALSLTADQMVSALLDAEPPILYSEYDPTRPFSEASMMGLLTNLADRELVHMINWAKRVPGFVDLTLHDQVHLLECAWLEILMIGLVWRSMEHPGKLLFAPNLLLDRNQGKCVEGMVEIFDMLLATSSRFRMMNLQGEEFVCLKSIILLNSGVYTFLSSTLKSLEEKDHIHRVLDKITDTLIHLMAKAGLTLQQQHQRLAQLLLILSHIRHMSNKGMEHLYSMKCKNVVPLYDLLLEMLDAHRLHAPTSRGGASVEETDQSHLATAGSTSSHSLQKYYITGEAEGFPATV
Conditions: sf9.

5-hydroxytryptamine receptor 1B, sequence (P28564 whole entry): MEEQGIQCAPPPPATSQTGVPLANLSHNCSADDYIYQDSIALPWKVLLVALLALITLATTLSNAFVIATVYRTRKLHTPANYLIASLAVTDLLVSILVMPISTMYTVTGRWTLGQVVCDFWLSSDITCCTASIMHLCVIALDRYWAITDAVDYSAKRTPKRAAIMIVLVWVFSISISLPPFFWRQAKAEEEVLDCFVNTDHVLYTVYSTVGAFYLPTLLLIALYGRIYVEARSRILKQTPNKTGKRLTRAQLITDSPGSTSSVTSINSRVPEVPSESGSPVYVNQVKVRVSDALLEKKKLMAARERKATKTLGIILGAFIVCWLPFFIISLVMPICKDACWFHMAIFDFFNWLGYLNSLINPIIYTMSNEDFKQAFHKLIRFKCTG
5-hydroxytryptamine receptor 4, sequence (O70528 whole entry): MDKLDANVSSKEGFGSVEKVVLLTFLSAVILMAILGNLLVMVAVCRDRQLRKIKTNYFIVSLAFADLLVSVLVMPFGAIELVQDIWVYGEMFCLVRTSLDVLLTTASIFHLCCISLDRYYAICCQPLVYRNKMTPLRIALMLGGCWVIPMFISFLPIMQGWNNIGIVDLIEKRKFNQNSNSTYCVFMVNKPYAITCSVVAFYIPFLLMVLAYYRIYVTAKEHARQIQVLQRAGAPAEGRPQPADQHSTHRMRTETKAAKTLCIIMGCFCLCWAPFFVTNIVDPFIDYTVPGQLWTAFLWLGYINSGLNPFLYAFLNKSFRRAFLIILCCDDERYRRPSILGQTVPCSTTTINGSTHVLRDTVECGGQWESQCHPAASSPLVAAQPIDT

For `CC(C)(C)NC(=O)[C@@H]1C[C@@H]2CCCC[C@@H]2CN1C[C@@H](O)[C@H](Cc1ccccc1)NC(=O)[C@H](CC(N)=O)NC(=O)c1ccc2ccccc2n1`, the IC50 result (against Cathepsin G; in assay [1]; in assay [2]; in assay [3]; in assay [4]; at Estrogen receptor) was “Not Active” in each case. Also, in assay [2], the inhibition constant Ki result is “Not Active”.
As to `CC1(C)O[C@@H]2C[C@H]3[C@@H]4CCC5=CC(=O)C=C[C@]5(C)[C@@]4(F)[C@@H](O)C[C@]3(C)[C@]2(C(=O)CO)O1` [TRIAMCINOLONE ACETONIDE], the IC50 result (against Cathepsin G; in assay [1]; in assay [2]; in assay [3]; in assay [4]) was “Not Active” each time. Further, in assay [2], the inhibitory constant (Ki) entry was “Not Active”.
Regarding `CN1CCN(CCCN2c3ccccc3Sc3ccc(Cl)cc32)CC1` [PROCHLORPERAZINE], the IC50 result was “Not Active” against Cathepsin G, 2.65 µM in assay [3] (read-out: IC50), 1.16 µM in assay [4] (read-out: IC50) and “Not Active” against Estrogen receptor. For the same compound, the Ki in assay [3] worked out at 1.2 µM; in assay [4] (read-out: Ki), 0.194 µM.
Take `N[C@@H](Cc1ccc(N(CCCl)CCCl)cc1)C(=O)O`: the IC50 result (on Cathepsin G; in assay [1]; in assay [2]; in assay [3]; in assay [4]) was “Not Active” throughout. The Ki result in assay [2] is “Not Active”.
Take `Cc1nc2n(c(=O)c1CCN1CCC(c3noc4cc(F)ccc34)CC1)CCCC2` [RISPERIDONE]: the IC50 result (at Cathepsin G; in assay [3]; in assay [4]; against Estrogen receptor) was “Not Active” each time.
Regarding `N[C@@H](Cc1cc(I)c(Oc2ccc(O)c(I)c2)c(I)c1)C(=O)O` [LIOTHYRONINE], the 50% inhibitory concentration (IC50) result (against Cathepsin G; in assay [1]; in assay [3]; in assay [4]; against Estrogen receptor) was “Not Active” each time.
For `O=NN(CCCl)C(=O)NC1CCCCC1` [LOMUSTINE], the IC50 entry (against Cathepsin G; in assay [1]; in assay [2]; in assay [3]; in assay [4]) was “Not Active” each time. Besides, the Ki entry in assay [2] is “Not Active”.
As for `CCCCc1oc2ccccc2c1C(=O)c1cc(I)c(OCCN(CC)CC)c(I)c1` [AMIODARONE], the IC50 entry against Cathepsin G was “Not Active”; in assay [1], “Not Active”; in assay [3] (read-out: IC50) it was 86.2 µM; in assay [4], “Not Active”; at Estrogen receptor, “Not Active”. In assay [3], the Ki worked out at 39.2 µM.
For the compound `N[C@@H](Cc1ccc(O)c(O)c1)C(=O)O` [LEVODOPA], the IC50 result (at Cathepsin G; in assay [1]; in assay [2]; in assay [3]; in assay [4]) was “Not Active” throughout. Moreover, the Ki entry in assay [2] is listed as “Not Active”.
For the compound `NS(=O)(=O)c1cc2c(cc1Cl)NC(C(Cl)Cl)NS2(=O)=O` (stereo not drawn) [TRICHLORMETHIAZIDE], the IC50 entry (at Cathepsin G; in assay [1]; in assay [2]; in assay [3]; in assay [4]) was “Not Active” in each case. Moreover, the Ki entry in assay [2] was “Not Active”.
For `CC/C(=C(\c1ccccc1)c1ccc(OCCN(C)C)cc1)c1ccccc1` [TAMOXIFEN], the half-maximal inhibitory concentration (IC50) result (against Cathepsin G; in assay [1]; in assay [3]; in assay [4]) was “Not Active” in each case.
Regarding `CO[C@H]1/C=C/O[C@@]2(C)Oc3c(C)c(O)c4c(O)c(c(/C=N/N5CCN(C)CC5)c(O)c4c3C2=O)NC(=O)/C(C)=C\C=C\[C@H](C)[C@H](O)[C@@H](C)[C@@H](O)[C@@H](C)[C@H](OC(C)=O)[C@@H]1C` [RIFAMPIN], the IC50 entry (on Cathepsin G; in assay [1]; in assay [2]; in assay [3]; in assay [4]) was “Not Active” each time. Also, in assay [2], the Ki entry is recorded as “Not Active”.
